The text below walks through data of publication PMC7404261 (2020).

The test system of test [1] is ssDNA-G4-Rv (DNA, single strand) ACCCCTTCCGCGCGCCTTTTCCCG
The test can be described thus: ethidium bromide staining of nondenaturing gel. As to conditions: K+ (100 mM KCl annealing, 10 mM KCl gel); Tris/HCl pH 7.5 annealing; 1x TBE gel; 1 µg/mL EthBr after ThT staining.

Test [2] deals with dsDNA-G4 (DNA, duplex) CGGGAAAAGGCGCGCGGAAGGGGT/ACCCCTTCCGCGCGCCTTTTCCCG
The test can be described thus: ethidium bromide staining of nondenaturing gel. As to conditions: K+ (100 mM KCl annealing, 10 mM KCl gel); Tris/HCl pH 7.5 annealing; 1x TBE gel; 1 µg/mL EthBr after ThT staining.

Test [3] has as its system ssDNA-G4-Fw (DNA, G4) CGGGAAAAGGCGCGCGGAAGGGGT
The test can be described thus: ThT staining of nondenaturing gel. Particulars: K+ (100 mM KCl annealing, 10 mM KCl gel); Tris/HCl pH 7.5 annealing; 1x TBE gel; stained with 5 µM ThT.

In test [4] the test system is HpTYMS-G4-T (DNA, hairpin) GGGAAAAGGCGCGCGGAAGGGGTTTTTGGGGAAGGCGCGCGGAAAAGGG
The test can be described thus: ThT staining of nondenaturing gel. As to conditions: K+ (100 mM KCl annealing, 10 mM KCl gel); Tris/HCl pH 7.5 annealing; 1x TBE gel; stained with 5 µM ThT.

Test [5] deals with HpTYMS-G4-T-WC (DNA, hairpin) CCCTTTTCCGCGCGCCTTCCCCTTTTTGGGGAAGGCGCGCGGAAAAGGG
The test can be described thus: ThT staining of nondenaturing gel. Particulars: K+ (100 mM KCl annealing, 10 mM KCl gel); Tris/HCl pH 7.5 annealing; 1x TBE gel; stained with 5 µM ThT.

In test [6] the test system is dsDNA-G4 (DNA, duplex) CGGGAAAAGGCGCGCGGAAGGGGT/ACCCCTTCCGCGCGCCTTTTCCCG
The test can be described thus: ThT staining of nondenaturing gel. As to conditions: K+ (100 mM KCl annealing, 10 mM KCl gel); Tris/HCl pH 7.5 annealing; 1x TBE gel; stained with 5 µM ThT.

Test [7] concerns ssDNA-G4-Rv (DNA, single strand) ACCCCTTCCGCGCGCCTTTTCCCG
The test can be described thus: ThT staining of nondenaturing gel. As to conditions: K+ (100 mM KCl annealing, 10 mM KCl gel); Tris/HCl pH 7.5 annealing; 1x TBE gel; stained with 5 µM ThT.

In the case of `CC[n+]1c(-c2ccccc2)c2cc(N)ccc2c2ccc(N)cc21`, the binding result in test [1] and in test [2] was “yes” each time.

Take `Cc1ccc2c(c1)sc(-c1ccc(N(C)C)cc1)[n+]2C`: the binding entry in test [3] is listed as “yes”; in test [4], “yes”; in test [5], “yes”; in test [6], “no”; in test [7], “no”.
